Assay results reported in the supplement of paper PMC10627819.

Test system: S. aureus DSM 20231
Experiment: Bliss interaction score (quartile over a dose matrix) (fitness difference); higher = more antagonism (negative = synergy)
How it was run: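 OD595 was read at entry into stationary phase and expressed relative to the robust mean of the no-drug wells on the same plate, capped at 1. The resulting ratio is the fitness value. The Bliss score, observed fitness minus product-based expected fitness with single-drug fitness inferred from combinations, is summarised by quartiles over technical, biological and donor/recipient replicates.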
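Note: first quartile when negative (synergy) and third quartile when positive (antagonism).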

Compared with `COCCOC(=O)C1=C(C)NC(C)=C(C(=O)OC/C=C/c2ccccc2)C1c1cccc([N+](=O)[O-])c1` (stereo not drawn) [Cilnidipine] + CC[C@H]1OC(=O)[C@H](C)[C@@H](O[C@H]2C[C@@](C)(OC)[C@@H](O)[C@H](C)O2)[C@H](C)[C@@H](O[C@@H]2O[C@H](C)C[C@H](N(C)C)[C@H]2O)[C@](C)(OC)C[C@@H](C)C(=O)[C@H](C)[C@@H](O)[C@]1(C)O [Clarithromycin], `CC(=O)Oc1cccc2c1C(=O)c1c(OC(C)=O)cc(C(=O)O)cc1C2=O` [Diacerein] + CC(=O)NC[C@H]1CN(c2ccc(N3CCOCC3)c(F)c2)C(=O)O1 [Linezolid] is lower in Bliss interaction score: -0.196 for the first, -0.29 for the second.

Compared with `COCCOC(=O)C1=C(C)NC(C)=C(C(=O)OC/C=C/c2ccccc2)C1c1cccc([N+](=O)[O-])c1` (stereo not drawn) [Cilnidipine] + CN(C)C(=O)C(CCN1CCC(O)(c2ccc(Cl)cc2)CC1)(c1ccccc1)c1ccccc1 [Loperamide], `CC(=O)Oc1cccc2c1C(=O)c1c(OC(C)=O)cc(C(=O)O)cc1C2=O` [Diacerein] + CN(C)C(=O)C(CCN1CCC(O)(c2ccc(Cl)cc2)CC1)(c1ccccc1)c1ccccc1 [Loperamide] is lower in Bliss interaction score: -0.32 for the first, -0.474 for the second.

Going from `COCCOC(=O)C1=C(C)NC(C)=C(C(=O)OC/C=C/c2ccccc2)C1c1cccc([N+](=O)[O-])c1` (stereo not drawn) [Cilnidipine] + CN(C)[C@@H]1C(O)=C(C(N)=O)C(=O)[C@@]2(O)C(O)=C3C(=O)c4c(O)ccc(Cl)c4[C@@](C)(O)[C@H]3C[C@@H]12 [Clortetracycline] to `CC(=O)Oc1cccc2c1C(=O)c1c(OC(C)=O)cc(C(=O)O)cc1C2=O` [Diacerein] + COc1cc(Cc2cnc(N)nc2N)cc(OC)c1OC [Trimethoprim], the Bliss interaction score rises from -0.323 to -0.243.

Compared with `COCCOC(=O)C1=C(C)NC(C)=C(C(=O)OC/C=C/c2ccccc2)C1c1cccc([N+](=O)[O-])c1` (stereo not drawn) [Cilnidipine] + CO[C@@]12[C@H](COC(N)=O)C3=C(C(=O)C(C)=C(N)C3=O)N1C[C@@H]1N[C@@H]12 [MitomycinC], `CC(=O)Oc1cccc2c1C(=O)c1c(OC(C)=O)cc(C(=O)O)cc1C2=O` [Diacerein] + C[C@H]1COc2c(N3CCN(C)CC3)c(F)cc3c(=O)c(C(=O)O)cn1c23 [Levofloxacin] is lower in Bliss interaction score: -0.236 for the first, -0.237 for the second.

Going from `COCCOC(=O)C1=C(C)NC(C)=C(C(=O)OC/C=C/c2ccccc2)C1c1cccc([N+](=O)[O-])c1` (stereo not drawn) [Cilnidipine] + COc1cc(Cc2cnc(N)nc2N)cc(OC)c1OC [Trimethoprim] to `O=C(O)c1cc(-c2ccc(F)cc2F)ccc1O` [Diflunisal] + CC(=O)O[C@H]1C[C@@]2(C)[C@@H](C[C@@H](O)[C@H]3[C@@]4(C)CC[C@@H](O)[C@@H](C)[C@@H]4CC[C@@]32C)/C1=C(\CCC=C(C)C)C(=O)O [Fusidic acid], the Bliss interaction score rises from -0.299 to 0.199.

Going from `COCCOC(=O)C1=C(C)NC(C)=C(C(=O)OC/C=C/c2ccccc2)C1c1cccc([N+](=O)[O-])c1` (stereo not drawn) [Cilnidipine] + C[C@H]1c2cccc(O)c2C(=O)C2=C(O)[C@]3(O)C(=O)C(C(N)=O)=C(O)[C@@H](N(C)C)[C@@H]3[C@@H](O)[C@@H]21 [Doxycycline] to `O=C(O)c1cc(-c2ccc(F)cc2F)ccc1O` [Diflunisal] + CN(C)C(=O)C(CCN1CCC(O)(c2ccc(Cl)cc2)CC1)(c1ccccc1)c1ccccc1 [Loperamide], the Bliss interaction score rises from -0.272 to 0.356.

Compared with `COCCOC(=O)C1=C(C)NC(C)=C(C(=O)OC/C=C/c2ccccc2)C1c1cccc([N+](=O)[O-])c1` (stereo not drawn) [Cilnidipine] + Clc1ccc(COC(Cn2ccnc2)c2ccc(Cl)cc2Cl)c(Cl)c1 [Miconazole], `C[C@H]1c2cccc(O)c2C(=O)C2=C(O)[C@]3(O)C(=O)C(C(N)=O)=C(O)[C@@H](N(C)C)[C@@H]3[C@@H](O)[C@@H]21` [Doxycycline] + CC(=O)S[C@@H]1CC2=CC(=O)CC[C@]2(C)[C@H]2CC[C@@]3(C)[C@@H](CC[C@@]34CCC(=O)O4)[C@H]12 [Spironolactone] is higher in Bliss interaction score: 0.105 for the first, 0.239 for the second.

Compared with `COCCOC(=O)C1=C(C)NC(C)=C(C(=O)OC/C=C/c2ccccc2)C1c1cccc([N+](=O)[O-])c1` (stereo not drawn) [Cilnidipine] + Cn1nnc(-c2ccc(-c3ccc(N4C[C@H](CO)OC4=O)cc3F)cn2)n1 [Tedizolid], `COc1cccc2c1C(=O)c1c(O)c3c(c(O)c1C2=O)C[C@@](O)(C(=O)CO)C[C@@H]3O[C@H]1C[C@H](N)[C@H](O)[C@H](C)O1` [Doxorubicin] + CCCSc1nc(N[C@@H]2C[C@H]2c2ccc(F)c(F)c2)c2nnn([C@@H]3C[C@H](OCCO)[C@@H](O)[C@H]3O)c2n1 [Ticagrelor] is higher in Bliss interaction score: -0.429 for the first, -0.298 for the second.

First: O=C(O)c1cn(C2CC2)c2cc(N3CCNCC3)c(F)cc2c1=O [Ciprofloxacin] + CCCSc1nc(N[C@@H]2C[C@H]2c2ccc(F)c(F)c2)c2nnn([C@@H]3C[C@H](OCCO)[C@@H](O)[C@H]3O)c2n1 [Ticagrelor]
Second: CN(C)[C@@H]1C(O)=C(C(N)=O)C(=O)[C@@]2(O)C(O)=C3C(=O)c4c(O)ccc(Cl)c4[C@@](C)(O)[C@H]3C[C@@H]12 [Clortetracycline] + CC(=O)Oc1cccc2c1C(=O)c1c(OC(C)=O)cc(C(=O)O)cc1C2=O [Diacerein]
The Bliss interaction score of the first is lower: -0.375 for the first, -0.344 for the second.

Compared with `O=C(O)c1cn(C2CC2)c2cc(N3CCNCC3)c(F)cc2c1=O` [Ciprofloxacin] + COc1cc2ncnc(Nc3ccc(F)c(Cl)c3)c2cc1OCCCN1CCOCC1 [Gefitinib], `CN(C)[C@@H]1C(O)=C(C(N)=O)C(=O)[C@@]2(O)C(O)=C3C(=O)c4c(O)ccc(Cl)c4[C@@](C)(O)[C@H]3C[C@@H]12` [Clortetracycline] + CC(=O)S[C@@H]1CC2=CC(=O)CC[C@]2(C)[C@H]2CC[C@@]3(C)[C@@H](CC[C@@]34CCC(=O)O4)[C@H]12 [Spironolactone] is higher in Bliss interaction score: -0.336 for the first, 0.196 for the second.

Compared with `O=C(O)c1cn(C2CC2)c2cc(N3CCNCC3)c(F)cc2c1=O` [Ciprofloxacin] + Cc1c(Cl)cccc1Nc1ccccc1C(=O)O [Tolfenamic], `CN(C)[C@@H]1C(O)=C(C(N)=O)C(=O)[C@@]2(O)C(O)=C3C(=O)c4c(O)ccc(Cl)c4[C@@](C)(O)[C@H]3C[C@@H]12` [Clortetracycline] + CCCc1nc2c(C)cc(-c3nc4ccccc4n3C)cc2n1Cc1ccc(-c2ccccc2C(=O)O)cc1 [Telmisartan] is lower in Bliss interaction score: -0.188 for the first, -0.261 for the second.

Compound `CN(C)[C@@H]1C(O)=C(C(N)=O)C(=O)[C@@]2(O)C(O)=C3C(=O)c4c(O)ccc(Cl)c4[C@@](C)(O)[C@H]3C[C@@H]12` [Clortetracycline] + CC[C@H](c1ccc(O)cc1)[C@@H](CC)c1ccc(O)cc1 [Hexestrol] has a Bliss interaction score of -0.204.
Work on `CN(C)[C@@H]1C(O)=C(C(N)=O)C(=O)[C@@]2(O)C(O)=C3C(=O)c4c(O)ccc(Cl)c4[C@@](C)(O)[C@H]3C[C@@H]12` [Clortetracycline] + COc1ccc(CCN(C)CCCC(C#N)(c2ccc(OC)c(OC)c2)C(C)C)cc1OC [Verapamil] yielded a Bliss interaction score of 0.243.
`CN(C)[C@@H]1C(O)=C(C(N)=O)C(=O)[C@@]2(O)C(O)=C3C(=O)c4c(O)ccc(Cl)c4[C@@](C)(O)[C@H]3C[C@@H]12` [Clortetracycline] + C[C@]12CC[C@@H]3c4ccc(O)cc4CC[C@H]3[C@@H]1CC[C@@H]2O [Estradiol] gave a Bliss interaction score of 0.237.
`CN(C)[C@@H]1C(O)=C(C(N)=O)C(=O)[C@@]2(O)C(O)=C3C(=O)c4c(O)ccc(Cl)c4[C@@](C)(O)[C@H]3C[C@@H]12` [Clortetracycline] + Cc1c(C)c2c(c(C)c1O)CCC(C)(COc1ccc(CC3SC(=O)NC3=O)cc1)O2 [Troglitazone] gave a Bliss interaction score of -0.137.
`CN(C)[C@@H]1C(O)=C(C(N)=O)C(=O)[C@@]2(O)C(O)=C3C(=O)c4c(O)ccc(Cl)c4[C@@](C)(O)[C@H]3C[C@@H]12` [Clortetracycline] + O=C(O)c1cc(-c2ccc(F)cc2F)ccc1O [Diflunisal] was tested, and the Bliss interaction score was 0.232.
Work on `CN(C)[C@@H]1C(O)=C(C(N)=O)C(=O)[C@@]2(O)C(O)=C3C(=O)c4c(O)ccc(Cl)c4[C@@](C)(O)[C@H]3C[C@@H]12` [Clortetracycline] + OCc1cc(C(O)CNCCCCCCOCCCCc2ccccc2)ccc1O [Salmeterol] yielded a Bliss interaction score of -0.118.
